# Results reported in US4398937A, “Selective algaecides for control of cyanochloronta” (The University of Southern Mississippi, priority 1981, dated 1983).
# Where two headings read alike, the source gives them in different places.
# What was measured:
# Format in all cases: cell-based
# Anabaena flos-aquae = experiment: Test tube culture inhibition of Anabaena flos-aquae, algal units/ml; conditions: for inhibition of growth at 10 ppm: Dolichospermum flos-aquae, 120 h, read-out: reduction of algal units/ml of the control
# Experimental: (§1) The algae used in this particular study were Chlamydomonas sp., Chlorella vulgaris, Anabaena sp., and Anabaena flos-aquae. Cultures of these algae were obtained, subcultured, and aqueous stocks of algae in 400 ml BBM were prepared and were used in log phase growth to innoculate test cultures.
# (§2) The fatty acids which were tested as algal inhibitors were 9, 10-dihydroxystearic acid, linoleic acid, dodecanoic acid, and ricinoleic acid.
# (§3) The test procedure involved placing 15 ml of BBM into 25 ml test tubes and innoculating them with 0.2 ml of algal stock solution. Twenty test tubes were innoculated with each algae. Four of these cultures were used with each concentration of each of the fatty acids. Four tubes from each set served as controls. Four concentrations of the fatty acids were used for each alga. The concentrations studied were 0.5 PPM, 1.0 PPM, 5.0 PPM, and 10.0 PPM.
# (§4) Algal cultures were incubated under constant light of about 200 foot-candles and at a temperature of 68° F. Bold's Basal Medium (BBM), a modification of Bristol's solution was the medium in which all the cultures were grown. Bold's Basal Medium was prepared as follows:
# (§5) Concentrations of fatty acids and the amount of stock solution used to prepare them were as follows:
# (§6) Each test tube contained 15 ml sterile BBM. To this was added an aliquot of 0.2 of algal stock solution. Then the appropriate aliquots of warm acid stock solution were added to the appropriate number of culture tubes. These cultures were then incubated 5 days and at that point were counted. The same cultures were also counted after a 12 day growth period.
# (§7) Stock solutions of the fatty acids to be tested as algal inhibitors were made from a stock solution of 5% sodium bicarbonate in glass-distilled water. The 5% sodium bicarbonate stock solution was made by dissolving 150 grams of sodium bicarbonate in 3000 ml of glass-distilled water. To insure complete dissolution, the solution was heated and stirred on a magnetic stirrer hot plate. The warm solution was used in preparing the fatty acid stock solutions.
# (§8) Quanitative phytoplankton values were determined using the random field method. Filaments, colonies, and aggregations of cells were recorded as algal units. Each unit consisted of approximately 6 cells. Unicellular algae were counted as separate units. Algal counts were made from each of three duplicate cultures. One ml of the algal sample was placed in a Sedgwick-Rafter counting chamber, which is 50 mm long by 20 mm, wide by 1 mm deep. A Wild Heerbrugg, compound microscope with a Whipple grid eyepiece was used to determine quantitative algae values.
# (§9) One ml of the algal solution was placed in the counting chamber, and two drops of methyl cellulose were added to minimize the movement of Chlamydomonas sp. Ten random fields were counted and all organisms within the Whipple grid field were enumerated.
# (§10) The following formula used to calculate the numbers per milliliter from the field counts: [formula] where: C=number of organisms counted,
# (§11) The area of the Whipple grid used was 0.46 mm^2, and the depth of a field was 1 mm. Results of the counts were reported as algal units/ml.
# Anabaena sp. = experiment: Test tube culture inhibition of Anabaena sp., algal units/ml; conditions: for inhibition of growth at 10 ppm: read-out: reduction of algal units/ml, % of the control
# Experimental: as §1, §2, §3, §4, §5, §6, §7, §8, §9, §10, §11
# Chlamydomonas sp. = experiment: Test tube culture inhibition of Chlamydomonas sp., algal units/ml; conditions: for reduction of number of algal units/ml vs control / inhibition of growth at 10 ppm: 10 PPM; for inhibition of growth at 10 ppm: Chlamydomonas, 120 h, read-out: reduction of number of algal units/ml, % of the control
# Experimental: as §1, §2, §3, §4, §5, §6, §7, §8, §9, §10, §11
# Chlorella vulgaris = experiment: Test tube culture inhibition of Chlorella vulgaris, algal units/ml
# Experimental: as §1, §2, §3, §4, §5, §6, §7, §8, §9, §10, §11
smiles,measurement,setting,value
"CCCCCCCCC(O)C(O)CCCCCCCC(=O)O (centres unmarked) [9,10-Dihydroxystearic Acid, 9,10-dihydroxystearic acid]",Algal units/ml,"Anabaena flos-aquae; 5 days, 0.5 PPM",4348 units/ml
same,Algal units/ml,"Anabaena flos-aquae; 5 days, 1.0 PPM",4348 units/ml
same,effect on algal growth,"Anabaena flos-aquae; 5 days, 1.0 PPM and less",stimulated
same,Algal units/ml,"Anabaena flos-aquae; 5 days, 5.0 PPM",2174 units/ml
same,Algal units/ml,"Anabaena flos-aquae; 5 days, 10.0 PPM",217 units/ml
same,Algal units/ml,"Anabaena flos-aquae; 12 days, 0.5 PPM",18478 units/ml
same,Algal units/ml,"Anabaena flos-aquae; 12 days, 1.0 PPM",13478 units/ml
same,Algal units/ml,"Anabaena flos-aquae; 12 days, 5.0 PPM",9130 units/ml
same,Algal units/ml,"Anabaena flos-aquae; 12 days, 10.0 PPM",3261 units/ml
same,effect on algal growth,"Anabaena flos-aquae; 12 days, all concentrations",inhibitory effect
same,inhibition of growth at 10 ppm,Anabaena flos-aquae; 5 days,90.9%
same,Algal units/ml,"Anabaena sp.; 5 days, 0.5 PPM",34130 units/ml
same,Algal units/ml,"Anabaena sp.; 5 days, 1.0 PPM",38043 units/ml
same,Algal units/ml,"Anabaena sp.; 5 days, 5.0 PPM",30217 units/ml
same,Algal units/ml,"Anabaena sp.; 5 days, 10.0 PPM",23261 units/ml
same,inhibition,"Anabaena sp.; 5 days, 10.0 PPM",effective as a inhibitor
same,inhibition of growth at 10 ppm,"Anabaena sp.; 288 h, 12 days, 10 PPM",16.6%
same,Algal units/ml,"Anabaena sp.; 12 days, 0.5 PPM",158043 units/ml
same,Algal units/ml,"Anabaena sp.; 12 days, 1.0 PPM",166739 units/ml
same,Algal units/ml,"Anabaena sp.; 12 days, 5.0 PPM",106957 units/ml
same,Algal units/ml,"Anabaena sp.; 12 days, 10.0 PPM",98473 units/ml
same,Algal units/ml,"Chlamydomonas sp.; 5 days, 0.5 PPM",10217 units/ml
same,Algal units/ml,"Chlamydomonas sp.; 5 days, 1.0 PPM",10436 units/ml
same,Algal units/ml,"Chlamydomonas sp.; 5 days, 5.0 PPM",11304 units/ml
same,reduction of number of algal units/ml vs control,Chlamydomonas sp.; 5 days,"5,000 algal units/ml"
same,Algal units/ml,"Chlamydomonas sp.; 5 days, 10.0 PPM",6522 units/ml
same,Algal units/ml,"Chlamydomonas sp.; 12 days, 0.5 PPM",47826 units/ml
same,Algal units/ml,"Chlamydomonas sp.; 12 days, 1.0 PPM",46739 units/ml
same,Algal units/ml,"Chlamydomonas sp.; 12 days, 5.0 PPM",50000 units/ml
same,Algal units/ml,"Chlamydomonas sp.; 12 days, 10.0 PPM",53478 units/ml
same,inhibition of growth at 10 ppm,Chlamydomonas sp.; 5 days,43.4%
"CCCCCCCCCCCC(=O)O [Dodecanoic Acid, dodecanoic acid]",effect on algal growth,"Anabaena flos-aquae; 5 and 12 days, all concentrations",some inhibitory effects
same,Algal units/ml,"Anabaena flos-aquae; 5 days, 0.5 PPM",1087 units/ml
same,Algal units/ml,"Anabaena flos-aquae; 5 days, 1.0 PPM",2174 units/ml
same,Algal units/ml,"Anabaena flos-aquae; 5 days, 5.0 PPM",2714 units/ml
same,Algal units/ml,"Anabaena flos-aquae; 5 days, 10.0 PPM",2174 units/ml
same,Algal units/ml,"Anabaena flos-aquae; 12 days, 0.5 PPM",20435 units/ml
same,Algal units/ml,"Anabaena flos-aquae; 12 days, 1.0 PPM",7609 units/ml
same,Algal units/ml,"Anabaena flos-aquae; 12 days, 5.0 PPM",6739 units/ml
same,Algal units/ml,"Anabaena flos-aquae; 12 days, 10.0 PPM",6522 units/ml
same,inhibition of growth at 10 ppm,Anabaena sp.; 120 h,22.7%
same,Algal units/ml,"Anabaena sp.; 5 days, 0.5 PPM",40435 units/ml
same,Algal units/ml,"Anabaena sp.; 5 days, 1.0 PPM",32609 units/ml
same,Algal units/ml,"Anabaena sp.; 5 days, 5.0 PPM",28261 units/ml
same,Algal units/ml,"Anabaena sp.; 5 days, 10.0 PPM",28696 units/ml
same,inhibition of growth at 10 ppm,Anabaena sp.; 288 h,22.7%
same,Algal units/ml,"Anabaena sp.; 12 days, 0.5 PPM",139348 units/ml
same,Algal units/ml,"Anabaena sp.; 12 days, 1.0 PPM",135217 units/ml
same,Algal units/ml,"Anabaena sp.; 12 days, 5.0 PPM",92826 units/ml
same,Algal units/ml,"Anabaena sp.; 12 days, 10.0 PPM",91204 units/ml
same,Algal units/ml,"Chlorella vulgaris; 5 days, 0.5 PPM",8913 units/ml
same,Algal units/ml,"Chlorella vulgaris; 5 days, 1.0 PPM",11304 units/ml
same,Algal units/ml,"Chlorella vulgaris; 5 days, 5.0 PPM",11304 units/ml
same,Algal units/ml,"Chlorella vulgaris; 5 days, 10.0 PPM",10435 units/ml
same,Algal units/ml,"Chlorella vulgaris; 12 days, 0.5 PPM",217391 units/ml
same,Algal units/ml,"Chlorella vulgaris; 12 days, 1.0 PPM",217391 units/ml
same,Algal units/ml,"Chlorella vulgaris; 12 days, 5.0 PPM",217391 units/ml
same,Algal units/ml,"Chlorella vulgaris; 12 days, 10.0 PPM",217391 units/ml
same,Algal units/ml,"Chlamydomonas sp.; 5 days, 0.5 PPM",10652 units/ml
same,Algal units/ml,"Chlamydomonas sp.; 5 days, 1.0 PPM",10435 units/ml
same,Algal units/ml,"Chlamydomonas sp.; 5 days, 5.0 PPM",12609 units/ml
same,Algal units/ml,"Chlamydomonas sp.; 5 days, 10.0 PPM",11957 units/ml
same,Algal units/ml,"Chlamydomonas sp.; 12 days, 0.5 PPM",47174 units/ml
same,Algal units/ml,"Chlamydomonas sp.; 12 days, 1.0 PPM",48696 units/ml
same,Algal units/ml,"Chlamydomonas sp.; 12 days, 5.0 PPM",46304 units/ml
same,Algal units/ml,"Chlamydomonas sp.; 12 days, 10.0 PPM",50217 units/ml
"CCCCC/C=C\C/C=C\CCCCCCCC(=O)O [Linoleic Acid, linoleic acid]",Algal units/ml,"Anabaena flos-aquae; 5 days, 0.5 PPM",1087 units/ml
same,effect on algal growth,"Anabaena flos-aquae; 5 days, 0.5 PPM",inhibition
same,Algal units/ml,"Anabaena flos-aquae; 5 days, 1.0 PPM",3261 units/ml
same,effect on algal growth,"Anabaena flos-aquae; 5 days, 1.0 PPM",stimulation
same,Algal units/ml,"Anabaena flos-aquae; 5 days, 5.0 PPM",1087 units/ml
same,Algal units/ml,"Anabaena flos-aquae; 5 days, 10.0 PPM",217 units/ml
same,Algal units/ml,"Anabaena flos-aquae; 12 days, 0.5 PPM",14565 units/ml
same,Algal units/ml,"Anabaena flos-aquae; 12 days, 1.0 PPM",8261 units/ml
same,Algal units/ml,"Anabaena flos-aquae; 12 days, 5.0 PPM",4130 units/ml
same,Algal units/ml,"Anabaena flos-aquae; 12 days, 10.0 PPM",3969 units/ml
same,effect on algal growth,"Anabaena flos-aquae; 12 days, all concentrations",inhibitory effect
same,inhibition of growth at 10 ppm,Anabaena flos-aquae; 5 days,90.9%
same,inhibition of growth at 10 ppm,"Anabaena sp.; 120 h, 5 days, 10.0 PPM",38.1%
same,Algal units/ml,"Anabaena sp.; 5 days, 0.5 PPM",45217 units/ml
same,Algal units/ml,"Anabaena sp.; 5 days, 1.0 PPM",46957 units/ml
same,Algal units/ml,"Anabaena sp.; 5 days, 5.0 PPM",32609 units/ml
same,Algal units/ml,"Anabaena sp.; 5 days, 10.0 PPM",19783 units/ml
same,reduction in algal units/ml vs control,"Anabaena sp.; 5 days, 10.0 PPM","12,174 algal units/ml"
same,inhibition of growth at 10 ppm,"Anabaena sp.; 288 h, 12 days, 10 PPM",19.5%
same,Algal units/ml,"Anabaena sp.; 12 days, 0.5 PPM",114565 units/ml
same,Algal units/ml,"Anabaena sp.; 12 days, 1.0 PPM",135217 units/ml
same,Algal units/ml,"Anabaena sp.; 12 days, 5.0 PPM",98261 units/ml
same,Algal units/ml,"Anabaena sp.; 12 days, 10.0 PPM",95000 units/ml
same,Algal units/ml,"Chlorella vulgaris; 5 days, 0.5 PPM",8697 units/ml
same,Algal units/ml,"Chlorella vulgaris; 5 days, 1.0 PPM",12174 units/ml
same,Algal units/ml,"Chlorella vulgaris; 5 days, 5.0 PPM",10870 units/ml
same,Algal units/ml,"Chlorella vulgaris; 5 days, 10.0 PPM",11304 units/ml
same,Algal units/ml,"Chlorella vulgaris; 12 days, 0.5 PPM",195652 units/ml
same,Algal units/ml,"Chlorella vulgaris; 12 days, 1.0 PPM",239130 units/ml
same,Algal units/ml,"Chlorella vulgaris; 12 days, 5.0 PPM",304348 units/ml
same,Algal units/ml,"Chlorella vulgaris; 12 days, 10.0 PPM",195652 units/ml
same,Algal units/ml,"Chlamydomonas sp.; 5 days, 0.5 PPM",11087 units/ml
same,Algal units/ml,"Chlamydomonas sp.; 5 days, 1.0 PPM",12609 units/ml
same,Algal units/ml,"Chlamydomonas sp.; 5 days, 5.0 PPM",12391 units/ml
same,reduction of number of algal units/ml vs control,Chlamydomonas sp.; 5 days,"5,000 algal units/ml"
same,Algal units/ml,"Chlamydomonas sp.; 5 days, 10.0 PPM",6522 units/ml
same,Algal units/ml,"Chlamydomonas sp.; 12 days, 0.5 PPM",45652 units/ml
same,Algal units/ml,"Chlamydomonas sp.; 12 days, 1.0 PPM",52174 units/ml
same,Algal units/ml,"Chlamydomonas sp.; 12 days, 5.0 PPM",50000 units/ml
same,Algal units/ml,"Chlamydomonas sp.; 12 days, 10.0 PPM",51087 units/ml
same,inhibition of growth at 10 ppm,Chlamydomonas sp.; 5 days,43.4%
